From patent US20100130554A1, “USE OF 4-CYCLOPROPYLMETHOXY-N-(3,5-DICHLORO-1-OXIDOPYRIDIN-4-YL)-5-(METHOXY)PYRIDINE-2-CARBOXAMIDE FOR THE TREATMENT OF MOTOR DISORDERS RELATED TO PARKINSON'S DISEASE” (SANOFI-AVENTIS, priority 2007, published 2010)

How the values were obtained:
ferrets = assay: Evaluation of the emetic effects in ferrets after oral gavage; format: in vivo; conditions: observed up to 6 hours
Method: The emetic capacity of 4-cyclopropylmethoxy-N-(3,5-dichloro-1-oxidopyridin-4-yl)-5-(methoxy)pyridine-2-carboxamide was evaluated in ferrets. Two groups of ferrets were used, the first being given the carrier (PEG200) and the second being given the 4-cyclopropylmethoxy-N-(3,5-dichloro-1-oxidopyridin-4-yl)-5-(methoxy)pyridine-2-carboxamide in solution in the carrier (PEG 200), by oral gavage. The animals were observed continually for 2 hours following administration, and then every hour until 6 hours after administration. The clinical signs (in particular, retching and vomiting) were noted.
The emetic capacity of (R)-(−)-rolipram was evaluated in the ferrets. Two groups of ferrets were used, the first being given the carrier (PEG200) and the second being given the […] in solution in the carrier (PEG 200), by oral gavage, at doses of 0.05 mg/kg and of 0.1 mg/kg. The animals were observed continually for the 2 hours following administration, and then once an hour up to 6 hours after the administration. The clinical signs were noted.

dopamine uptake sites = assay: Protection in a model of Parkinson's disease: dopaminergic neuron loss in mice poisoned with MPTP, striatal dopamine uptake sites quantified by GBR12935 binding; format: in vivo; conditions: MPTP-poisoned C57BL6 mice, striatum, gavage twice a day for 17 days, MPTP only = 58%, p<0.01 vs MPTP only
Method: The effects of the 4-cyclopropylmethoxy-N-(3,5-dichloro-1-oxidopyridin-4-yl)-5-(methoxy)pyridine-2-carboxamide used according to the invention were evaluated in mice using a model of dopaminergic neuron loss.
Protection in a Model of Parkinson's disease (Dopaminergic Neuron Loss in Mice Poisoned with MPTP (1-methyl-4-phenyl-1,2,3,6-tetrahydropyridine):
C57BL6 mice are given 4 intraperitoneal injections of 20 mg/kg of MPTP, each 2 hours apart. The 4-cyclopropylmethoxy-N-(3,5-dichloro-1-oxidopyridin-4-yl)-5-(methoxy)pyridine-2-carboxamide in solution in the carrier (methylcellulose (MC) (0.6%)+Tween-80 (0.5%)) is administered by gavage between the 2nd and 3rd injection of MPTP and just after the final injection of MPTP, and then twice a day for 17 days at the total daily doses of 0.015 and 0.050 mg/kg. Twenty-four hours after the final treatment, the striatum is removed and the dopamine uptake sites are quantified using a GBR12935 (1-[2-(diphenylmethoxy)ethyl]-4-(3-phenylpropyl)piperazine) binding method.

[1] = cited from earlier work
[2] = oral gavage in PEG200, 0.1 mg/kg

Structure (SMILES)	emetic effects (retching and vomiting) (ferrets; [2])	density of the dopamine uptake sites, % of the level observed in the normal animals (dopamine uptake sites; total daily dose 0.015 mg/kg/d) [%]	density of the dopamine uptake sites, % of the level observed in the normal animals (dopamine uptake sites; total daily dose 0.050 mg/kg/d) [%]	emetic effects (retching and vomiting) (ferrets; oral gavage in PEG200, 0.05 mg/kg)	emetic effects in clinical studies [1]
COc1cnc(C(=O)Nc2c(Cl)c[n+]([O-])cc2Cl)cc1OCC1CC1 [4-cyclopropylmethoxy-N-(3,5-dichloro-1-oxidopyridin-4-yl)-5-(methoxy)pyridine-2-carboxamide]	neither retching nor vomiting	82	85		
COc1ccc([C@@H]2CNC(=O)C2)cc1OC1CCCC1 [(R)-(−)-rolipram, (4R)-4-[3-(cyclopentyloxy)-4-methoxyphenyl]pyrrolidine-2-one]	induce vomiting			induce vomiting	
COc1ccc(C2CNC(=O)C2)cc1OC1CCCC1 (stereo not drawn) [rolipram]					induce emetic effects
